From patent publication US10570176B2, “Anti-hepatitis B virus X protein polypeptide pharmaceutical” (priority 2015, dated 2020)
Non-standard residues stand in square brackets, D forms with d. Residues, ends and D or L forms follow the SMILES beside them.

Key:
[1] = tested on: HBV transgenic mice; test: Serum HBV DNA copy number in HBV transgenic mice, real-time PCR; format: in vivo; conditions: for effective rate (serum HBV DNA): tail i.v. daily
From the text: HBV transgenic mice were purchased from Guangzhou Junketaite Pharmaceutical Technology Co., Ltd. The animal model is a 1.3 copies high expressing replicative form HBV whole-genome transgenic mice Tg (HBV 1.3 genome) Swb established using microinjection method by Guangzhou Junketaite Pharmaceutical Technology Co., Ltd. Serum HBsAg and HBeAg can be analyzed with common ELISA kit; serum HBV DNA of 93.93% positive transgenic mice is 10^4˜10^6 copy/mL; liver tissues in immunohistochemistry have HBsAg (cytoplasmic type) and HBcAg (karyotype) expression. […] This makes a good foundation for the transgenic model to be used in evaluating anti-HBV drugs.
Prepare D-TTK001 aseptically. Administer 2.5 mg/kg (10 mice) or 5.0 mg/kg (42 mice) based on mice weight through tail intravenous injection in a volume of 50 μL. Administer 50 μL of sterile PBS to blank control group (10 mice). Mice are 6-8 months old, half male and half female. Inject daily for 3 weeks (21 days in total). Take artery blood from mice tail before administration for future measurement of HBV DNA content in mice blood, record as T0 group. Take artery blood from mice tail after one week (T1+ group), two weeks (T2+ group), and three weeks (T3+ group) of administration. Take blood after one week of stopping administration (T4 group). Blood samples were standed in room temperature for 2-4 hours to prepare serum. Store samples in −80° C. refrigerator for future measurement of HBV DNA content in mice blood.
(i) Preparation of test samples: Take out the test samples from −80° C. refrigerator. Place it at room temperature for balancing. Take corresponding amount of reaction liquid, enzyme mix and internal standard by proportion (reaction liquid 38 μL per serving+enzyme mix 2 μL per serving+internal standard 0.2 μL per serving) according to numbers of test sample, negative control sample and reference sample, mix sufficiently as PCR-mix. Sample treatment (negative control, positive control quantitative reference and test samples are treated synchronously): Add 5 μL of cell nucleic releaser into each PCR reaction tube, then add 5 μL test sample into each tube, absorb back and forth for 3-5 times and mix; after more than 10 minutes interval, add 40 μL of PCR-mix into each tube, close the tubes with caps, centrifuge at 2000 rpm for 30 seconds.
Utilizing real time PCR HBV DNA assay kit manufactured by Sun Yat-sen University Daan Gene Co., Ltd. according to the manufacturer's specification as followed: Place PCR reaction tube into sample cell of PCR instrument, set negative control, positive control, quantitative references A-D and test sample in corresponding order, and then set sample name and concentration of quantitative reference. Selection of fluorescence detection channel: for example, in ABI 7300 instrument, i) select FAM channel (reporter: FAM, quencher: none) to detect HBV-DNA; ii) select HEX/VIC channel (reporter: HEX/VIC, quencher: none) to detect HBV-internal standard; iii) set passive reference as ROX.
Set analysis conditions: adjust start value, stop vale of Baseline and Value of Threshold according to analyzed image (arbitrary adjustable by user according to actual needs, start value can be 1˜10, stop value can be 5˜10, Value can be 0.01˜0.2) to optimize standard curve in “Std curve” window, i.e., correlation between −1.0˜−0.97. Select “Analyze” in “Analysis” menu for automatic result analysis. Record value (C) of unknown variable in “Tray” window. “C” indicates concentration or content of the sample.

[2] = tested on: HepG2.2.15 cells; test: HBeAg secretion ELISA in HepG2.2.15 cells; format: cell-based; conditions: 0.1, 1, 10, 100 μM
Method: (§1) 3. Analysis of function of D-TTK001 on HBeAg secreation in liver cancer cells utilizing enzyme-linked immunosorbent assay (ELISA)
(§2) (i) Biosafety cabinet was ultraviolet sterilized for 30 min and purged for 30 min; DMEM/F12 (1:1) culture medium containing 15% fetal bovine serum, HepAD38 cells (or HepG2.2.15 cells) were taken out, sterilized with 75% alcohol, and placed in the biosafety cabinet.
(§3) (ii) Under aseptic conditions, discard old culture medium, add 3 mL 1×PBS each time, wash twice, add 1 mL 0.25% trypsin, the cells were digested until cell rounding as observed in microscope. Add 5 mL culture medium, dispense cells, count with hemocytometer, and dilute with culture medium to a cell number of 1˜2×10^4 cells/mL.
(iii) Plating 96-well plate. Under aseptic conditions, discard old culture medium, add 3 mL 1×PBS each time, wash twice, add 1 mL 0.05% trypsin, the cells were digested until cell rounding as observed in microscope. Add 10 mL culture medium, dispense cells, count with hemocytometer, and dilute with DMEM/F12(1:1) culture medium, add 100 μL cell suspension into each well to a cell number of 1˜2×10^3 cells/mL. […]
(§4) (x) Stopping: add 50 μL of stop solution into each well, gently shake and mix, measure the result in ten minutes. Set wavelength of microplate reader to 450 nm, measure OD value for each well after zero setting with blank wells.

[3] = tested on: liver cancer HepAD38 cells integrated with HVB DNA; test: HBeAg secretion ELISA in HepAD38 cells; format: cell-based
Method: as §1, §2, §3
(iii) Plating 96-well plate. Under aseptic conditions, discard old culture medium, add 3 mL 1×PBS each time, wash twice, add 1 mL 0.05% trypsin, the cells were digested until cell rounding as observed in microscope. Add 10 mL culture medium, dispense cells, count with hemocytometer, and dilute with DMEM/F12(1:1) culture medium, add 100 μL cell suspension into each well to a cell number of 1˜2×10^3 cells/mL. The outer-most wells are not added with cells. Culturing until cell attachment (usually 12 hrs.) and extension. Subsequent tests can be conducted when cells are in good condition.
(2) Applying D-TTK001 (or L-TTK001, i.e., anti-HBxP1#) to liver cancer HepAD38 cells (or HepG2.2.15 cells)
10 mM D-TTK001 (or L-TTK001) mother solution was serially diluted from high concentration to low concentration, added into liver cancer HepAD38 cells (or HepG2.2.15 cells) culture solution to obtain final concentrations of D-TTK001 (or L-TTK001) of 0.1 μM, 1 μM, 10 and 100 μM in respective groups. […]
(3) Applying ELISA to measure HBeAg content in HepAD38 cell (or HepG2.2.15 cell) culture medium
(i) Balancing: place HBeAg assay kit in room temperature for 30 min.
(ii) Preparing solution: dilute concentrated wash liquid for 25 times with purified water.
(iii) Taking out the plate: take out the reaction plate according to experimental requirements (3 wells for negative control, 1 well for positive control, and 1 well for blank control).
(iv) Adding sample: add 75 μL of test samples or negative/positive control into respective wells, gently shake and mix.
(v) Incubating: after sealed with microplate sealer, incubate at 37° C. for 60 min.
(vi) Adding enzyme: add 50 μL of enzyme conjugates into each well except for blank wells, gently shake and mix.
(vii) Incubating: after sealed with microplate sealer, incubate at 37° C. for 30 min.
(viii) Washing plate: remove microplate sealer carefully, manually wash plate for 5 times, pat dry.
(ix) Developing color: add 50 μL each of color-developing agent A and B liquid, gently shake and mix, develop color in dark placed at 37° C. for 30 min.
as §4
The invention also investigates the role of the functional variants of the polypeptide and functional fragments thereof. The sequences as shown in the following table are artificially synthesized D-amino acid substituted sequences on the basis of L-TTK001 (i.e., anti-HBxP1#). The polypeptide fragments were artificially synthesized according to the sequences (method as above), and then, above-mentioned ELISA method was adopted to observe the change in the functions of the polypeptides.

CSCC[C@@H](NC(=O)[C@H](NC(=O)[C@@H](C)NC(=O)[C@@H](CO)NC(=O)CN)C(C)C)C(=O)N[C@H](Cc1ccccc1)C(=O)N[C@H](CO)C(=O)N[C@H](CO)C(=O)N[C@H](CCCCN)C(=O)N[C@H](CCC(=O)O)C(=O)N[C@H](CCCNC(=N)N)C(=O)NCC(=O)O [D-TTK001, Gly-D-Ser-D-Ala-D-Val-D-Met-D-Phe-D-Ser-D-Ser-D-Lys-D-Glu-D-Arg-Gly] (H-G[dS][dA][dV][dM][dF][dS][dS][dK][dE][dR]G-OH; N-terminus and C-terminus assumed)
copy number of HBV DNA in serum ([1]; 2.5 mg/kg and 5.0 mg/kg, tail intravenous injection): clearly reduced | effective rate (serum HBV DNA) ([1]; 2.5 mg/kg group, from one week (T1+ group), 3 out of 10 mice): 30% | effective rate (serum HBV DNA) ([1]; 5.0 mg/kg group, 23 out of 42 mice): 54.8% | time dependent decreasing effective rate ([1]; 5.0 mg/kg group, 7 out of 23 mice): 30.4% | effective rate (serum HBV DNA) from one week (T1+ group) ([1]; 5.0 mg/kg group, 18 out of 39 mice): 46.2% | Minimum effective dose on HBeAg secretion levels [2]: 0.1 µM | Inhibition of HBeAg secretion levels ([3]; 10 μM): most significant effect | Minimum effective dose on HBeAg secretion levels ([3]; 0.1, 1, 10, 100 μM): 0.1 µM
